Here are results for 34 compounds from US10526327B2, “Histone demethylase inhibitors” (CELGENE QUANTICEL RESEARCH, INC., priority 2013, dated 2020).

Where only a bound is given, the exact number is not on record here.

This experiment addresses T1, Jarid1B (Homo sapiens, UniProt Q9UGL1).
T1 construct: purchased BPS Bioscience or custom made by MolecularThroughput 50121
T1 sequence (Q9UGL1 2-751): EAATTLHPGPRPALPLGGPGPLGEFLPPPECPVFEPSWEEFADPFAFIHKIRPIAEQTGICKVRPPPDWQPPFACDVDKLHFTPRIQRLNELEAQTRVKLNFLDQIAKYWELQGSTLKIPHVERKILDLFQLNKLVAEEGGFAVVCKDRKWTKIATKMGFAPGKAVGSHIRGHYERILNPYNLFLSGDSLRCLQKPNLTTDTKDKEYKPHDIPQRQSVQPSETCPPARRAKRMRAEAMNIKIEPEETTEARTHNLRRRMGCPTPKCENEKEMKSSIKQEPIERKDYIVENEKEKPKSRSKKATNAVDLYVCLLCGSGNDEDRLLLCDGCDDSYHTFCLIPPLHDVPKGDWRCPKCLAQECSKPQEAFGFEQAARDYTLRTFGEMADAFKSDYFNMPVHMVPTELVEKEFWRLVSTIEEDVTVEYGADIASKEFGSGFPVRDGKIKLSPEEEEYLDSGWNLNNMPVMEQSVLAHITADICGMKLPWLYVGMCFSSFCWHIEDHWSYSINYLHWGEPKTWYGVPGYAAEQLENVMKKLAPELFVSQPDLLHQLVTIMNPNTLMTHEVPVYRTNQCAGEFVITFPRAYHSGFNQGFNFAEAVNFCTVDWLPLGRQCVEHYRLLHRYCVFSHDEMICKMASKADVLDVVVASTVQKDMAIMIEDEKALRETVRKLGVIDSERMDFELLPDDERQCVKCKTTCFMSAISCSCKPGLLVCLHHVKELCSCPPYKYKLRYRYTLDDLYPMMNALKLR
The experiment is described as follows: Jarid1B in vitro enzyme inhibition assay (TR-FRET). The class given is biochemical. The source says: This assay determines the ability of a test compound to inhibit Jarid1A, Jarid1B, and JMJD2C demethylase activity. Baculovirus expressed Jarid1A (GenBank Accession #NM_001042603, AA1-1090) was purchased from BPS Bioscience (Cat#50110). Baculovirus expressed Jarid1B (GenBank Accession #NM_006618, AA 2-751) was purchased from BPS Bioscience (Cat #50121) or custom made by MolecularThroughput. Baculovirus expressed JMJD2C (GenBank Accession #BC143571, AA 2-372) was purchased from BPS Bioscience (Cat#50105).
The ability of test compounds to inhibit the activity of Jarid1B was determined in 384-well plate format under the following reaction conditions: 0.8 nM Jarid1B, 300 nM H3K4me3-biotin labeled peptide (Anaspec cat #64357), 2 μM alpha-ketoglutaric acid in assay buffer of 50 mM HEPES, pH7.3, 0.005% Brij35, 0.5 mM TCEP, 0.2 mg/ml BSA, 50 μM sodium L-ascorbate, and 2 μM ammonium iron(II) sulfate. Reaction product was determined quantitatively by TR-FRET after the addition of detection reagent Phycolink Streptavidin-allophycocyanin (Prozyme) and Europium-anti-mono-or di-methylated histone H3 lysine 4 (H3K4me1-2) antibody (PerkinElmer) in the presence of 5 mM EDTA in LANCE detection buffer (PerkinElmer) at a final concentration of 25 nM and 1 nM, respectively.
The assay reaction was initiated by the following: 2 μl of the mixture of 900 nM H3K4me3-biotin labeled peptide and 6 μM alpha-ketoglutaric acid with 2 μl of 11-point serial diluted inhibitor in 3% DMSO was added to each well of the plate, followed by the addition of 2 μl of 2.4 nM Jarid1B to initiate the reaction. The reaction mixture was incubated at room temperature for 30 minutes, and terminated by the addition of 6 μl of 5 mM EDTA in LANCE detection buffer containing 50 nM Phycolink Streptavidin-allophycocyanin and 2 nM Europium-anti-H3K4me1-2 antibody. Plates were read by EnVisionMultilabel Reader in TR-FRET mode (excitation at 320 nm, emission at 615 nm and 665 nm) after 1 hour incubation at room temperature. A ratio was calculated (665/615) for each well and fitted to determine inhibition constant (IC50).
(In general: TR-FRET usually uses a lanthanide donor and a delayed reading to cut background.)
Regarding `Oc1nc(Oc2ccnc(N3CCNCC3)c2)nc2cnccc12` [Example 96, 2-(2-piperazin-1-ylpyridin-4-yl)oxypyrido[3,4-d]pyrimidin-4-ol], the IC50 was no more than 100 nM.
The value for `CC(C)(C)OC(=O)N1CCC(n2cc(Oc3nc(O)c4ccncc4n3)cn2)CC1` [Example 88, tert-butyl 4-[4-(4-hydroxypyrido[3,4-d]pyrimidin-2-yl)oxypyrazol-1-yl]piperidine-1-carboxylate] was no more than 100 nM.
As for `Cn1cnc(-c2nccc3c(O)nc(OCCCC(F)(F)F)nc23)c1` [Example 74, 8-(1-methylimidazol-4-yl)-2-(4,4,4-trifluorobutoxy)pyrido[3,4-d]pyrimidin-4-ol], the figure is no more than 100 nM; as for `Cn1cnc(-c2nccc3c(O)nc(OCC(F)(F)F)nc23)c1` [Example 70, 8-(1-methyl-1H-imidazol-4-yl)-2-(2,2,2-trifluoroethoxy)pyrido[3,4-d]pyrimidin-4-ol], no more than 100 nM; as for `Oc1nc(Oc2cnn(C3CCOCC3)c2)nc2cnccc12` [Example 67, 2-{[1-(tetrahydro-2H-pyran-4-yl)-1H-pyrazol-4-yl]oxy}pyrido[3,4-d]pyrimidin-4-ol], no more than 100 nM.
`COc1ccc(Oc2nc(O)c3ccncc3n2)cc1` [Example 48, 2-(4-methoxyphenoxy)pyrido[3,4-d]pyrimidin-4-ol] returned an IC50 of no more than 100 nM.
Compound `COc1cccc(Oc2nc(O)c3ccncc3n2)c1` [Example 44, 2-(3-methoxyphenoxy)pyrido[3,4-d]pyrimidin-4-ol] displayed an IC50 of no more than 100 nM.
The value for `Cn1cnc(-c2nccc3c(O)nc(OCC(C)(C)O)nc23)c1` [Example 98, 2-(2-hydroxy-2-methylpropoxy)-8-(1-methylimidazol-4-yl)pyrido[3,4-d]pyrimidin-4-ol] was 100 to 1000 nM; that for `Cn1cnc(-c2nccc3c(O)nc(OCCO)nc23)c1` [Example 75, 2-(2-hydroxyethoxy)-8-(1-methylimidazol-4-yl)pyrido[3,4-d]pyrimidin-4-ol] was no more than 100 nM.
As for `CCc1cccc(Oc2nc(O)c3ccncc3n2)c1` [Example 57, 2-(3-ethylphenoxy)pyrido[3,4-d]pyrimidin-4-ol], the figure is no more than 100 nM.
As for `Oc1nc(Oc2ccc(F)cc2)nc2cnccc12` [Example 47, 2-(4-fluorophenoxy)pyrido[3,4-d]pyrimidin-4-ol], the figure is no more than 100 nM; as for `Cn1cnc(-c2nccc3c(O)nc(OCc4cccc(Cl)c4Cl)nc23)c1` [Example 106, 2-[(2,3-dichlorophenyl)methoxy]-8-(1-methyl-1H-imidazol-4-yl)pyrido[3,4-d]pyrimidin-4-ol], no more than 100 nM; as for `C=CC(=O)N1CCC(n2cc(Oc3nc(O)c4ccncc4n3)cn2)CC1` [Example 91, 1-[4-[4-(4-hydroxypyrido[3,4-d]pyrimidin-2-yl)oxypyrazol-1-yl]piperidin-1-yl]prop-2-en-1-one], no more than 100 nM.
The compound `Cn1cnc(-c2nccc3c(O)nc(OCC4CC4)nc23)c1` [Example 72, 2-(cyclopropylmethoxy)-8-(1-methylimidazol-4-yl)pyrido[3,4-d]pyrimidin-4-ol] came in with an IC50 of no more than 100 nM.
The compound `CC(=O)Nc1ccc(Oc2nc(O)c3ccncc3n2)cc1` [Example 35, N-[4-(4-hydroxypyrido[3,4-d]pyrimidin-2-yl)oxyphenyl]acetamide] displayed an IC50 of no more than 100 nM.
In the case of `CCOc1c(F)cc(Oc2nc(O)c3ccncc3n2)cc1F` [Example 45, 2-(4-ethoxy-3,5-difluorophenoxy)pyrido[3,4-d]pyrimidin-4-ol], the IC50 was no more than 100 nM.
The compound `Cn1cnc(-c2nccc3c(O)nc(Oc4ccc(F)c(F)c4)nc23)c1` [Example 81, 2-(3,4-difluorophenoxy)-8-(1-methylimidazol-4-yl)pyrido[3,4-d]pyrimidin-4-ol] displayed an IC50 of no more than 100 nM.
The value for `CC(C)CCn1cc(Oc2nc(O)c3ccnc(-c4cn(C)cn4)c3n2)cn1` [Example 80, 2-[1-(3-methylbutyl)pyrazol-4-yl]oxy-8-(1-methylimidazol-4-yl)pyrido[3,4-d]pyrimidin-4-ol] was no more than 100 nM; that for `CCCOc1nc(O)c2ccncc2n1` [Example 7, 2-propoxy-3H-pyrido[3,4-d]pyrimidin-4-one] was 100 to 1000 nM; that for `Cn1cnc(-c2nccc3c(O)nc(Oc4cnn(C5CCOCC5)c4)nc23)c1` [Example 100, 8-(1-methylimidazol-4-yl)-2-[1-(oxan-4-yl)pyrazol-4-yl]oxypyrido[3,4-d]pyrimidin-4-ol] was no more than 100 nM.
On to `CCn1cc(Oc2nc(O)c3ccncc3n2)cn1` [Example 62, 2-[(1-ethyl-1H-pyrazol-4-yl)oxy]pyrido[3,4-d]pyrimidin-4-ol], for which the IC50 is no more than 100 nM.
With `CN(C)CCOc1nc(O)c2ccnc(-c3cn(C)cn3)c2n1` [Example 76, 2-[2-(dimethylamino)ethoxy]-8-(1-methylimidazol-4-yl)pyrido[3,4-d]pyrimidin-4-ol], the IC50 lay within 100 to 1000 nM.
As for `CC(C)(C)OC(=O)Nc1cccc(Oc2nc(O)c3ccncc3n2)c1` [Example 36, tert-butyl N-[3-(4-hydroxypyrido[3,4-d]pyrimidin-2-yl)oxyphenyl]carbamate], the figure is no more than 100 nM; as for `Cc1nn(C)c2cc(Oc3nc(O)c4ccnc(-c5cn(C)cn5)c4n3)ccc12` [Example 85, 2-(1,3-dimethylindazol-6-yl)oxy-8-(1-methylimidazol-4-yl)pyrido[3,4-d]pyrimidin-4-ol], no more than 100 nM.
As for `Oc1nc(OCC(F)(F)F)nc2cnccc12` [Example 12, 2-(2,2,2-trifluoroethoxy)pyrido[3,4-d]pyrimidin-4-ol], the figure is 100 to 1000 nM; as for `O=C(c1cc(F)cc(Oc2nc(O)c3ccncc3n2)c1)N1CCOCC1` [Example 60], no more than 100 nM; as for `Cn1cnc(-c2nccc3c(O)nc(OCC4CCOC4)nc23)c1` (stereo not shown) [Example 103, 8-(1-methyl-1H-imidazol-4-yl)-2-(oxolan-3-ylmethoxy)pyrido[3,4-d]pyrimidin-4-ol], no more than 100 nM.
`Cn1cnc(-c2nccc3c(O)nc(OCCC4CC4)nc23)c1` [Example 78, 2-(2-cyclopropylethoxy)-8-(1-methylimidazol-4-yl)pyrido[3,4-d]pyrimidin-4-ol]: the IC50 is no more than 100 nM.
`Oc1nc(OCC2CCC2)nc2cnccc12` [Example 11, 2-(cyclobutylmethoxy)-3H-pyrido[3,4-d]pyrimidin-4-one] had an IC50 of 100 to 1000 nM.
The compound `Cn1cnc(-c2nccc3c(O)nc(OCc4ccccc4)nc23)c1` [Example 101, 8-(1-methylimidazol-4-yl)-2-phenylmethoxypyrido[3,4-d]pyrimidin-4-ol] gave an IC50 of no more than 100 nM.
As for `COc1c(F)cc(Oc2nc(O)c3ccncc3n2)cc1F` [Example 43, 2-(3,5-difluoro-4-methoxyphenoxy)pyrido[3,4-d]pyrimidin-4-ol], the figure is no more than 100 nM; as for `Cn1cnc(-c2nccc3c(O)nc(OCc4cccc(F)c4)nc23)c1` [Example 104, 2-[(3-fluorophenyl)methoxy]-8-(1-methyl-1H-imidazol-4-yl)pyrido[3,4-d]pyrimidin-4-ol], no more than 100 nM.
In the case of `COCCn1ncc2ccc(Oc3nc(O)c4ccncc4n3)cc21` [Example 61, 2-{[1-(2-methoxyethyl)-1H-indazol-6-yl]oxy}pyrido[3,4-d]pyrimidin-4-ol], the IC50 is no more than 100 nM.
`CC(C)n1cc(Oc2nc3cnccc3c(=O)[nH]2)cn1` [Example 63, 2-{[1-(propan-2-yl)-1H-pyrazol-4-yl]oxy}pyrido[3,4-d]pyrimidin-4-ol] displayed an IC50 of no more than 100 nM.

Usually IC50 stands for the concentration that gives 50% inhibition. Lower therefore signals greater potency in that assay.
